Key:
SIRT1 [1] = molecular target: T1, SIRT1 (Homo sapiens, UniProt Q96EB6); assay: TAMRA based mass spectrometry assay of SIRT1 deacetylase activation; format: biochemical; settings: TAMRA peptide substrate; for TAMRA EC1.5 (μM): concentration that results in 150% activation of SIRT1; for TAMRA % Fold Act: percent maximum fold activation relative to control (100%)
T1 sequence (Q96EB6 1-747): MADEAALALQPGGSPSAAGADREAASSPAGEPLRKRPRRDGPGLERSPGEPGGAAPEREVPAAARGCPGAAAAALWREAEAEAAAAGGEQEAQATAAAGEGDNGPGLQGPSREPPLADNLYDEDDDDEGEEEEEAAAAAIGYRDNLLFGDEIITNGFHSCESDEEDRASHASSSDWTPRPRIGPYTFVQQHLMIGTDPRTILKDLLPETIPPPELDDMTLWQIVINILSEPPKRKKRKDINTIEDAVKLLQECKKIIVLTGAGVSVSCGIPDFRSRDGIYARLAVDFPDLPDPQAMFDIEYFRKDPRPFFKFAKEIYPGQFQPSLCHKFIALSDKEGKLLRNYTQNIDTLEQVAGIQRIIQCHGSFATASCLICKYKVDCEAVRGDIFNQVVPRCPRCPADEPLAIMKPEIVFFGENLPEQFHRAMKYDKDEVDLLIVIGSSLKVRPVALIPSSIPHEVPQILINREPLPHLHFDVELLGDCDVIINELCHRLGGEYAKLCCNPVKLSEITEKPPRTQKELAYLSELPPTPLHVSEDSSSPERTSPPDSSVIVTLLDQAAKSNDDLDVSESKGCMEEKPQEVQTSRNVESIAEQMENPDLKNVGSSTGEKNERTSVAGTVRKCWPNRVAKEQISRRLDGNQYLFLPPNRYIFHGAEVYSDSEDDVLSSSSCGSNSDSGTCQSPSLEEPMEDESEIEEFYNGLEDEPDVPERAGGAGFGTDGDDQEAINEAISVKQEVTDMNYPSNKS
Outline: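 E. coli-expressed N-terminal His-tagged human SIRT1 (10 nM) was incubated 25 min at 25 °C, pH 8 Tris-acetate buffer, with 0.5 μM TAMRA-labelled p53-derived acetyl-peptide, 120 μM NAD+ and varying compound; formic acid stop, mass-spec quantitation of deacetylated product vs DMSO controls. EC1.5 = concentration giving 150% activation.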

SIRT1 [2] = molecular target: T1, SIRT1; assay: Trp mass spectrometry assay of SIRT1 deacetylase activation; format: biochemical; settings: Trp peptide substrate; for TRP EC1.5 (μM): concentration that results in 150% activation of SIRT1; for TRP % Fold Act: percent maximum fold activation relative to control (100%)
Outline: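 His-tagged human SIRT1 (E. coli-expressed, 10 nM) was incubated with 0.5 μM Ac-RHKK(Ac)W-NH2 peptide and 120 μM βNAD+ for 25 min at 25 °C in HEPES pH 7.5, 1500 mM NaCl, with varying compound; formic acid quench. OAADPR or deacetylated peptide was quantified by mass spectrometry against DMSO control. EC1.5 (150% activation) and percent maximum activation were derived.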

Compound	TAMRA EC1.5 (μM) (SIRT1 [1])	TAMRA % Fold Act (SIRT1 [1])	TRP EC1.5 (μM) (SIRT1 [2])	TRP % Fold Act (SIRT1 [2])
Cc1cnc(NC(=O)c2ccnc3cc(-c4cccc(C(F)(F)F)c4)nn23)s1 [Compound 88]	B (EC1.5 1−25 μM)	B (Fold Activation<350%)	C (EC1.5>25 μM)	B (Fold Activation<350%)
O=C(Nc1ccnc2cc(-c3cccc(C(F)(F)F)c3)nn12)c1ccccn1 [Compound 70]	C (EC1.5>25 μM)	B (Fold Activation<350%)	C (EC1.5>25 μM)	B (Fold Activation<350%)
Cc1cc(C)nc(C(=O)Nc2ccnc3cc(-c4ccccc4C(F)(F)F)nn23)c1 [Compound 106]	A (EC1.5<1 μM)	A (Fold activation≧350%)	C (EC1.5>25 μM)	B (Fold Activation<350%)
Cc1cccnc1C(=O)Nc1ccnc2cc(-c3ccccc3C(F)(F)F)nn12 [Compound 112]	A (EC1.5<1 μM)	A (Fold activation≧350%)	C (EC1.5>25 μM)	B (Fold Activation<350%)
O=C(Nc1ccncc1)c1ccnc2cc(-c3cccc(C(F)(F)F)c3)nn12 [Compound 86]	C (EC1.5>25 μM)	B (Fold Activation<350%)	C (EC1.5>25 μM)	B (Fold Activation<350%)
O=C(Nc1nccs1)c1cc(N2CCOCC2)nn2cc(-c3ccccc3C(F)(F)F)nc12 [Compound 42]	B (EC1.5 1−25 μM)	B (Fold Activation<350%)	C (EC1.5>25 μM)	B (Fold Activation<350%)
O=C(Nc1cccnc1)c1ccnc2cc(-c3cccc(C(F)(F)F)c3)nn12 [Compound 85]	C (EC1.5>25 μM)	B (Fold Activation<350%)	C (EC1.5>25 μM)	B (Fold Activation<350%)
O=C(Nc1ccncc1)c1cc(N2CCOCC2)nn2cc(-c3ccccc3C(F)(F)F)nc12 [Compound 46]	A (EC1.5<1 μM)	A (Fold activation≧350%)	C (EC1.5>25 μM)	B (Fold Activation<350%)
O=C(Nc1ccccn1)c1cc(N2CCOCC2)nn2cc(-c3cccc(F)c3)nc12 [Compound 27]	C (EC1.5>25 μM)	B (Fold Activation<350%)	C (EC1.5>25 μM)	B (Fold Activation<350%)
O=C(Nc1ccccn1)c1cc(N2CCOCC2)nn2cc(-c3ccccc3F)nc12 [Compound 39]	C (EC1.5>25 μM)	B (Fold Activation<350%)	C (EC1.5>25 μM)	B (Fold Activation<350%)
O=C(Nc1ccnc2cc(-c3ccccc3C(F)(F)F)nn12)c1nccs1 [Compound 93]	B (EC1.5 1−25 μM)	B (Fold Activation<350%)	C (EC1.5>25 μM)	B (Fold Activation<350%)
O=C(Nc1ccnc2cc(-c3cccc(C(F)(F)F)c3)nn12)c1cscn1 [Compound 66]	C (EC1.5>25 μM)	B (Fold Activation<350%)	C (EC1.5>25 μM)	B (Fold Activation<350%)
Cc1nc(C(=O)Nc2ccnc3cc(-c4ccccc4C(F)(F)F)nn23)cs1 [Compound 56]	A (EC1.5<1 μM)	A (Fold activation≧350%)	C (EC1.5>25 μM)	B (Fold Activation<350%)
O=C(Nc1nccs1)c1ccnn2cc(-c3ccccc3F)nc12 [Compound 1]	C (EC1.5>25 μM)	B (Fold Activation<350%)	C (EC1.5>25 μM)	B (Fold Activation<350%)
O=C(Nc1cccnc1)c1cc(N2CCOCC2)nn2cc(-c3ccccc3C(F)(F)F)nc12 [Compound 45]	B (EC1.5 1−25 μM)	A (Fold activation≧350%)	B (EC1.5 1−25 μM)	B (Fold Activation<350%)
O=C(Nc1ccnc2cc(-c3ccccc3C(F)(F)F)nn12)c1ccn[nH]1 [Compound 110]	B (EC1.5 1−25 μM)	A (Fold activation≧350%)	B (EC1.5 1−25 μM)	B (Fold Activation<350%)
O=C(Nc1ccccn1)c1cc(N2CCOCC2)nn2cc(-c3ccccc3Cl)nc12 [Compound 36]	C (EC1.5>25 μM)	B (Fold Activation<350%)	C (EC1.5>25 μM)	B (Fold Activation<350%)
O=C(Nc1ccnc2cc(-c3ccccc3C(F)(F)F)nn12)c1cccc(OC[C@H](O)CO)n1 [Compound 114]	A (EC1.5<1 μM)	A (Fold activation≧350%)	A (EC1.5<1 μM)	A (Fold activation≧350%)
Cc1cnc(C(=O)Nc2ccnc3cc(-c4ccccc4C(F)(F)F)nn23)s1 [Compound 58]	C (EC1.5>25 μM)	B (Fold Activation<350%)	C (EC1.5>25 μM)	B (Fold Activation<350%)
O=C(Nc1nccs1)c1ccnc2cc(-c3cccc(C(F)(F)F)c3)nn12 [Compound 87]	C (EC1.5>25 μM)	B (Fold Activation<350%)	C (EC1.5>25 μM)	B (Fold Activation<350%)
O=C(Nc1ncccn1)c1ccnc2cc(-c3cccc(C(F)(F)F)c3)nn12 [Compound 101]	C (EC1.5>25 μM)	B (Fold Activation<350%)	B (EC1.5 1−25 μM)	B (Fold Activation<350%)
O=C(Nc1ccncc1)c1cc(N2CCOCC2)nn2cc(-c3cccc(Cl)c3)nc12 [Compound 54]	C (EC1.5>25 μM)	B (Fold Activation<350%)	C (EC1.5>25 μM)	B (Fold Activation<350%)
O=C(Nc1ccnc2cc(-c3ccccc3C(F)(F)F)nn12)c1cscn1 [Compound 55]	B (EC1.5 1−25 μM)	A (Fold activation≧350%)	C (EC1.5>25 μM)	B (Fold Activation<350%)
O=C(Nc1ccnc2cc(-c3ccccc3C(F)(F)F)nn12)c1cccnc1 [Compound 103]	B (EC1.5 1−25 μM)	B (Fold Activation<350%)	C (EC1.5>25 μM)	B (Fold Activation<350%)
O=C(Nc1ccnc2cc(-c3ccccc3C(F)(F)F)nn12)c1cccc(N2CCOCC2)n1 [Compound 63]	A (EC1.5<1 μM)	B (Fold Activation<350%)	C (EC1.5>25 μM)	B (Fold Activation<350%)
O=C(Nc1cccnc1)c1ccnc2cc(-c3ccccc3C(F)(F)F)nn12 [Compound 76]	B (EC1.5 1−25 μM)	A (Fold activation≧350%)	B (EC1.5 1−25 μM)	B (Fold Activation<350%)
COc1cccc(C(=O)Nc2ccnc3cc(-c4ccccc4C(F)(F)F)nn23)n1 [Compound 111]	A (EC1.5<1 μM)	A (Fold activation≧350%)	C (EC1.5>25 μM)	B (Fold Activation<350%)
O=C(Nc1ccccn1)c1cc(N2CCOCC2)nn2cc(-c3cccc(Cl)c3)nc12 [Compound 32]	C (EC1.5>25 μM)	B (Fold Activation<350%)	C (EC1.5>25 μM)	B (Fold Activation<350%)
O=C(Nc1nccs1)c1cc(N2CCOCC2)nn2cc(-c3cccc(Cl)c3)nc12 [Compound 30]	C (EC1.5>25 μM)	B (Fold Activation<350%)	C (EC1.5>25 μM)	B (Fold Activation<350%)
O=C(Nc1cccc(CN2CCOCC2)n1)c1ccnc2cc(-c3cccc(C(F)(F)F)c3)nn12 [Compound 91]	C (EC1.5>25 μM)	B (Fold Activation<350%)	C (EC1.5>25 μM)	B (Fold Activation<350%)

— patent US20140288052A1, “SUBSTITUTED BICYCLIC AZA-HETEROCYCLES AND ANALOGUES AS SIRTUIN MODULATORS” (GlaxoSmithKline, LLC, priority 2011, published 2014)
